Laboratory results from patent US20070191324A1, “Methods for treatment or prophylaxis of aldosterone-mediated pathogenic effects in a subject using an epoxy-steroidal aldosterone antagonist” (priority 1999, published 2007).
Read-outs that look alike come from different tables or passages of the source.

Columns and labels:
[1] = system: aldosterone/salt uninephrectomized rats; experiment: Myocardial injury in aldosterone/salt uninephrectomized rats (Example A-6); format: in vivo, Sprague Dawley rats; conditions: eplerenone in chow 100 mg/k/d; aldosterone 0.75 ug/hr, 1% NaCl
Protocol: The rats were then implanted with Alzet mini pump that subcutaneously delivered either aldosterone (0.75 ug/hr) or vehicle. […] Blood pressure was measured by radio telemetry units implanted in abdominal aorta. Rats were sacrificed for examination of the hearts.

[2] = system: patients with stage I-III hypertension; experiment: Fixed-dose eplerenone vs placebo, clinic and ambulatory BP, 12 weeks (Example D-13); format: in vivo, human
Description: Patients were reassessed using clinic and ambulatory BP at the end of 12 weeks of therapy.

[3] = system: patients with mild-to-moderate hypertension; experiment: Eplerenone versus enalapril in essential hypertension, 12-month titration-to-effect (Example D-3); format: in vivo, human
Protocol: The study design is illustrated in FIG. D-6. Patients with mild-to-moderate hypertension (diastolic blood pressure [DBP]≧95 mmHg and <110 mmHg) were randomized to receive initially EPL 50 mg QD (n=253) or ENAL 10 mg QD (n=246). If DBP ≧90 mmHg at Weeks 4, 8, 12, 16, or 20, the dose of study medication was up-titrated incrementally to EPL 100 mg and 200 mg QD, or ENAL 20 mg and 40 mg QD. […] At 24 wks and 12 months, changes in BP, RAAS hormone profile, urinary albumin excretion (urinary albumin: creatinine ratio [UACR]), laboratory tests, safety, and adverse events (AEs) were assessed.

[4] = system: patients uncontrolled with BB or CCB monotherapy; experiment: Eplerenone co-administration with CCB or beta-blocker, 8 weeks (Example D-10); format: in vivo, human; conditions: for Diastolic Blood Pressure Responder Rates, Percentage of Patients Responding: seDBP <90 mmHg or ≧10 mmHg reduction
Protocol: This was a multicenter, double-blind, randomized, placebo-controlled, placebo run-in, parallel-group study. […] The dose was to be increased only once during the study. […] Study assessments at protocol-specified timepoints included BP, heart rate, clinical laboratory analyses, ECG, and concomitant medications. Throughout the study, safety was assessed by routine clinical laboratory analyses, vital signs, physical examinations, 12-lead ECG, and monitoring of adverse events. […] The study was designed to include 60 randomized patients in each group and each cohort.

[5] = Food effect pharmacokinetic studies, Japan and Ex-Japan (Example A-11); format: in vivo, human; conditions: single 100 mg; for AUC(0-inf) / Cmax / AUC: male, human, in vivo, oral, 100 mg; for AUC: read-out: AUC (0-lqc)
Protocol: The […] trials included (i) a single dose tolerability trial, and (ii) a multiple dose tolerability trial, and (iii) a food effect study.
Both single dose and multiple dose tolerability trials were conducted in Japan utilizing healthy male Japanese subjects. […] Six subjects who received the 100 mg dose also participated in the food effect treatment arm of the single dose tolerability trial.
Table A-11C contains the geometric least squares means for the fed and fasting regimens, the ratios of means and the corresponding 95% confidence intervals (CI) for the ratios of the means for the Japan and Ex-Japan food effect trials.
Each panel consisted of six subjects who were given eplerenone and two subjects who were given placebo.

[6] = Week 24, EPL 50-200 mg QD, ENAL 10-40 mg QD titrated
[7] = eplerenone 50-100 mg QD, 8 weeks

Question: Which cardiac histopathologic damage [1] does the source give for `COC(=O)[C@@H]1CC2=CC(=O)CC[C@]2(C)[C@@]23O[C@@H]2C[C@@]2(C)[C@@H](CC[C@@]24CCC(=O)O4)[C@H]13` [Eplerenone, Pregn-4-ene-7,21-dicarboxylic acid, 9,11-epoxy-17-hydroxy-3-oxo-, γ-lactone, methyl ester, (7α, 11α, 17β)-] here?
Answer: The cardiac histopathologic damage was “prevents the histopathologic damage”.

Question: What about the “Δ Ambulatory BP, diastolic” value ([2]; 25 mg QD) of the same compound?
Answer: The value was −4.4 mmHg.

Question: What about the “Δ Ambulatory BP, systolic” value ([2]; 25 mg QD) of the same compound?
Answer: The value was −6.4 mmHg.

Question: What about the “Δ Clinic BP, diastolic” value ([2]; 25 mg QD) of the same compound?
Answer: The value was −3.7 mmHg.

Question: What about the “Δ Clinic BP, systolic” value ([2]; 25 mg QD) of the same compound?
Answer: The value was −5.7 mmHg.

Question: What about the “Δ Ambulatory BP, diastolic” value ([2]; 50 mg QD) of the same compound?
Answer: The value was −4.1 mmHg.

Question: And the “Δ Ambulatory BP, systolic” value ([2]; 50 mg QD)?
Answer: The value was −6.8 mmHg.

Question: What about the “Δ Clinic BP, diastolic” value ([2]; 50 mg QD) of the same compound?
Answer: Its value is −4.6 mmHg.

Question: What about the “Δ Clinic BP, systolic” value ([2]; 50 mg QD) of the same compound?
Answer: The value was −6.7 mmHg.

Question: What about the “Δ Ambulatory BP, diastolic” value ([2]; 100 mg QD) of the same compound?
Answer: Its value is −5.5 mmHg.

Question: And the “Δ Ambulatory BP, systolic” value ([2]; 100 mg QD)?
Answer: Its value is −9.1 mmHg.

Question: What about the “Δ Clinic BP, diastolic” value ([2]; 100 mg QD) of the same compound?
Answer: The value was −6.3 mmHg.

Question: And the “Δ Clinic BP, systolic” value ([2]; 100 mg QD)?
Answer: Its value is −10.4 mmHg.

Question: And the “Δ Ambulatory BP, diastolic” value ([2]; 200 mg QD)?
Answer: The value was −5.7 mmHg.

Question: And the “Δ Ambulatory BP, systolic” value ([2]; 200 mg QD)?
Answer: Its value is −10.3 mmHg.

Question: What about the “Δ Clinic BP, diastolic” value ([2]; 200 mg QD) of the same compound?
Answer: Its value is −5.4 mmHg.

Question: What about the “Δ Clinic BP, systolic” value ([2]; 200 mg QD) of the same compound?
Answer: The value was −8.8 mmHg.

Question: And the “gynecomastia, menstrual abnormalities, breast pain” value ([2]; 25-200 mg QD)?
Answer: Its value is “no reports of gynecomastia, menstrual abnormalities, or breast pain”.

Question: What about the patients experiencing coughing ([3]; 12-month study) of the same compound?
Answer: The patients experiencing coughing was 2.4%.

Question: And the patients experiencing hyperglycemia ([3]; 12-month study)?
Answer: Its patients experiencing hyperglycemia is 0.0%.

Question: What about the “patients experiencing urinary tract infections (UTI)” value ([3]; 12-month study) of the same compound?
Answer: The value was 0.4%.

Question: What about the DBP change ([3]; 12 months) of the same compound?
Answer: The DBP change was −13.3 mmHg.

Question: And the SBP change ([3]; 12 months)?
Answer: The SBP change was −16.5 mmHg.

Question: What about the DBP change [3, 6] of the same compound?
Answer: Its DBP change is −11.2 mmHg.

Question: What about the SBP change [3, 6] of the same compound?
Answer: Its SBP change is −14.5 mmHg.

Question: What about the “reduction in UACR” value ([3]; Week 24, patients with baseline UACR ≧30 mg/g) of the same compound?
Answer: Its value is −61.5%.

Question: And the safety and tolerability ([3]; in vivo)?
Answer: Its safety and tolerability is “safe and well tolerated”.

Question: And the “Diastolic Blood Pressure Responder Rates, Percentage of Patients Responding” value ([4]; BB Cohort, Week 2)?
Answer: The value was 48 (69.6%).

Question: And the “Diastolic Blood Pressure Responder Rates, Percentage of Patients Responding” value ([4]; BB Cohort, Week 4)?
Answer: Its value is 53 (76.8%).

Question: What about the “Diastolic Blood Pressure Responder Rates, Percentage of Patients Responding” value ([4]; BB Cohort, Week 6) of the same compound?
Answer: Its value is 56 (81.2%).

Question: What about the “Diastolic Blood Pressure Responder Rates, Percentage of Patients Responding” value ([4]; BB Cohort, Week 8) of the same compound?
Answer: The value was 52 (75.4%).

Question: What about the “Diastolic Blood Pressure Responder Rates, Percentage of Patients Responding” value ([4]; CCB Cohort, Week 2) of the same compound?
Answer: The value was 40 (60.6%).

Question: What about the “Diastolic Blood Pressure Responder Rates, Percentage of Patients Responding” value ([4]; CCB Cohort, Week 4) of the same compound?
Answer: The value was 51 (76.1%).

Question: And the “Diastolic Blood Pressure Responder Rates, Percentage of Patients Responding” value ([4]; CCB Cohort, Week 6)?
Answer: Its value is 55 (82.1%).

Question: What about the “Diastolic Blood Pressure Responder Rates, Percentage of Patients Responding” value ([4]; CCB Cohort, Week 8) of the same compound?
Answer: The value was 48 (71.6%).

Question: And the safety and tolerability ([4]; add on anti-hypertensive agent)?
Answer: Its safety and tolerability is “safe and well tolerated”.

Question: And the “responders (seDBP <90 mmHg or ≧10 mmHg reduction from Baseline), CCB cohort” value ([4]; each timepoint, vs placebo)?
Answer: Its value is “more patients who received eplerenone responded to treatment”.

Question: What about the “responders (seDBP <90 mmHg or ≧10 mmHg reduction from Baseline), BB cohort” value ([4]; each timepoint, vs placebo (p ≦0.011)) of the same compound?
Answer: The value was “significantly greater proportions of patients who received eplerenone responded to treatment”.

Question: And the “DBP and SBP, addition to a BB” value [4, 7]?
Answer: Its value is “efficacious in reducing DBP and SBP”.

Question: And the “SBP, addition to a CCB” value [4, 7]?
Answer: The value was “efficacious in reducing SBP”.

Question: And the “AUC (0-inf) Mean Ratio fed/fasted” value ([5]; Ex-Japan)?
Answer: Its value is 1.079.

Question: What about the “AUC (0-inf) Mean Ratio fed/fasted” value ([5]; Japan) of the same compound?
Answer: Its value is 1.218.

Question: And the AUC(0-inf) ([5]; Ex-Japan, Fasted)?
Answer: Its AUC(0-inf) is 9060 ng·h/mL.

Question: What about the Cmax ([5]; Ex-Japan, Fasted) of the same compound?
Answer: Its Cmax is 1620 ng/mL.

Question: And the AUC ([5]; Ex-Japan, Fasted)?
Answer: The AUC was 8940 ng·h/mL.

Question: And the AUC(0-inf) ([5]; Ex-Japan, Fed)?
Answer: Its AUC(0-inf) is 9780 ng·h/mL.

Question: And the Cmax ([5]; Ex-Japan, Fed (high fat meal))?
Answer: The Cmax was 1320 ng/mL.

Question: And the AUC ([5]; Ex-Japan, Fed)?
Answer: The AUC was 9650 ng·h/mL.

Question: And the AUC(0-inf) ([5]; Japan, Fasted)?
Answer: The AUC(0-inf) was 8970 ng·h/mL.

Question: What about the Cmax ([5]; Japan, Fasted) of the same compound?
Answer: Its Cmax is 1310 ng/mL.

Question: And the AUC(0-inf) ([5]; Japan, Fed)?
Answer: The AUC(0-inf) was 10900 ng·h/mL.

Question: What about the Cmax ([5]; Japan, Fed) of the same compound?
Answer: Its Cmax is 1520 ng/mL.
